In patent US10035820B2, “Compounds which inhibit neuronal exocytosis” (Lubrizol Advanced Materials, Inc., priority 2012, dated 2018):

Tested on: human neuroblastoma cell line
Test: Release of noradrenaline induced by TPA/Ionomycin in a neuroblastoma cell line, quantified by ELISA
Assay type: cell-based
Details: TPA/ION control = 100
Method: The induction of the release of noradrenaline with TPA (12-O-tetradecanoylphorbol-13-acetate)/Ionomycin enables direct measurement of neuronal exocytosis. For the study of the inhibitory effect of the compounds of the invention on the release of noradrenaline, cells of a human neuroblastoma cell line were pre-incubated (1×10^6 cells/well) for 60 minutes with the compound of the invention (1 μM, 10 μM, 100 μM, 500 μM or 1 mM compounds), and afterward the release of noradrenaline was induced. The release of the noradrenaline neurotransmitter was induced by an 8 minute pre-treatment with a solution of 12-O-tetradecanoylphorbol-13-acetate (TPA) 100 nM, which mobilized the intracellular vesicles which contained the neurotransmitter; followed by a 5 minute incubation with TPA/Ionomycin (100 nM/10 μM), which induced the release of the neurotransmitter contained in these vesicles. […] For this, absorbance at 405 nm was measured in Thermo Scientific Multiskan Ascent equipment.
The blocking of the SNARE complex by the compounds of the invention lead to an inhibition of neuronal exocytosis and therefore, a decrease in the levels of released noradrenaline (Table 6).

Row | Substance | % RELEASED NORADRENALINE Average (1 μM compound) | % RELEASED NORADRENALINE Average (10 μM compound) | % RELEASED NORADRENALINE Average (100 μM compound) | % RELEASED NORADRENALINE Average (500 μM compound) | % RELEASED NORADRENALINE Average (1000 μM compound)
1 | Ac-EELKRWM-NH2 [Ac-SEQ ID NO: 116-NH2] | 87.59% | 83.30% | 62.24% | 52.82% | 43.10%
2 | Ac-ENLKRWM-NH2 [Ac-SEQ ID NO: 117-NH2] | 87.99% | 83.11% | 70.76% | 58.37% | 54.64%
